# Measurements as given in patent US6335327B1, “Benzoheterocyclic derivatives” (Otsuka Pharmaceuticals Co., Ltd., priority 1994, dated 2002).
row,melting point,Structure (SMILES)
1,144 to 146 °C,"O=C(Nc1ccc(C(=O)N2CCCCc3ccccc32)c(Cl)c1)OCCOc1ccccc1 [Example 726, 1-[4-(2-phenoxyethoxycarbonylamino)-2-chlorobenzoyl]-2,3,4,5-tetrahydro-1H-benzazepine]"
2,138 to 140 °C,"CN1CCN(c2ccc(C(=O)N3CCCCc4ccccc43)c(Cl)c2)CC1 [Example 728, 1-[4-(4-methyl-1-piperazinyl)-2-chlorobenzoyl]-2,3,4,5-tetrahydro-1H-benzazepine]"
3,153 to 154.5 °C,"COc1cc(NCc2ccccc2C)ccc1C(=O)N1CCCC(CC(=O)N2CCN(C)CC2)c2cc(Cl)ccc21 (stereo not drawn) [Example 142, 7-chloro-5-[(4-methyl-1-piperazinyl)carbonylmethyl]-1-[2-methoxy-4-(2-methylbenzylamino)benzoyl]-2,3,4,5-tetrahydro-1H-benzazepine]"
4,160 to 161 °C,"COc1cc(NCCOc2ccccc2C)ccc1C(=O)N1CCCC(CC(=O)N2CCN(C)CC2)c2cc(Cl)ccc21 (stereo not drawn) [Example 139, 7-chloro-5-[(4-methyl-1-piperazinyl)carbonylmethyl]-1-[2-methoxy-4-[2-(2-methylphenoxy)ethylamino]benzoyl}-2,3,4,5-tetrahydro-1H-benzazepine]"
5,191 to 194 °C,"O=C(c1ccc(-c2ccccc2)cc1Cl)N1CCCC(Cc2nnn[nH]2)c2ccccc21 (stereo not drawn) [Example 730, 5-(5-tetrazolyl)methyl-1-(4-phenyl-2-chlorobenzoyl)-2,3,4,5-tetrahydro-1H-benzazepine]"
6,102 to 106 °C,"O=C(O)CC1CCCN(C(=O)c2ccc(NC(=O)COc3ccccc3)cc2)c2ccccc21 (stereo not drawn) [Example 721, 5-carboxymethyl-1-[4-(2-phenoxyacetylamino)benzoyl]-2,3,4,5-tetrahydro-1H-benzazepine]"
7,181 to 184 °C,"O=C(Nc1ccc(C(=O)N2CCCCc3ccccc32)c(Cl)c1)OCc1ccncc1 [Example 725, 1-{4-[(4-pyridyl)methoxycarbonylamino]-2-chlorobenzoyl}-2,3,4,5-tetrahydro-1H-benzazepine]"
8,194 to 195 °C,"Cc1cc(NC(=O)CO)ccc1C(=O)N1CCCCc2cc(Cl)ccc21 [Example 722, 7-chloro-1-[2-methyl-4-(2-hydroxyacetylamino)benzoyl]-2,3,4,5-tetrahydro-1H-benzazepine]"
9,230 to 232 °C,"COc1cc(C(=O)N2CCCCc3cc(Cl)ccc32)ccc1NC(=O)N(C)C [Example 146, 7-chloro-1-(3-methoxy-4-dimethylaminocarbonylaminobenzoyl)-2,3,4,5-tetrahydro-1H-benzazepine]"
